Results: PubChem BioAssay (NCI)
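Briefly, cells in 96-well plates were exposed to five compound concentrations for 48 h, and endpoints were estimated by linear interpolation. The concentration for full growth arrest is given as TGI.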

Key:
Test in all cases: growth of human tumour cells (NCI), 48 h
[1] = test system: SF-268 CNS
[2] = test system: SK-MEL-28 melanoma
[3] = test system: SF-539 CNS
[4] = test system: 786-0 renal
[5] = test system: NCI-H23 lung
[6] = test system: NCI-H460 lung
[7] = test system: SNB-75 CNS
[8] = test system: COLO 205 colon
[9] = test system: HT29 colon
[10] = test system: RPMI-8226 leukemia

| SMILES | TGI [1] [µM] | TGI [2] [µM] | TGI [3] [µM] | TGI [4] [µM] | TGI [5] [µM] | TGI [6] [µM] | TGI [7] [µM] | TGI [8] [µM] | TGI [9] [µM] | TGI [10] [µM] |
| --- | --- | --- | --- | --- | --- | --- | --- | --- | --- | --- |
| O=c1oc2ccccc2cc1-c1csc(Nc2ccc(F)cc2)n1 | 9.09 | 6.6 | 3.5 | 3.17 | 11 | 22.3 | 4.57 | 14.9 | 14.2 | 4.44 |
| COc1ccccc1NC(=S)Nc1cc(C)cc(C)n1 | > 100 | > 100 | > 100 | > 100 | > 100 | > 100 | > 100 | > 100 | > 100 | > 100 |
| O=c1[nH]nc(-c2ccccc2)n1/N=C/c1ccc([N+](=O)[O-])cc1 | > 87.2 | > 100 | > 100 | 22.9 | > 100 | > 100 | 34.9 | > 100 | > 100 | > 100 |
| CCOC(=O)c1cc2c([nH]1)c(O)cc1c2ccn1Cc1ccccc1 | 51.3 | 33.8 | 40.2 | 32.6 | 28.1 | 34.7 | 50.2 | 39.8 | 30.2 | 27.9 |
| COC(=O)CC(c1cn(S(=O)(=O)c2ccc(C)cc2)c2ccccc12)C1C[C@@H](C(=O)OC)N(C(=O)OC(C)(C)C)C1=O (stereo not given in full) | > 100 | > 100 | 65.6 | > 100 | > 100 | > 100 | > 100 | 86.6 | > 100 | 35.4 |
| O=C(O)C1CCCN(CCc2c[nH]c3ccccc23)C1 (stereo not given) | > 100 | > 100 | > 100 | > 100 | > 100 | > 100 | > 100 | > 100 | > 100 | > 100 |
| COC(=O)C1=C(O)C(C(=O)OC)[C@]2(O)[C@H](C(=O)OC)[C@H]1C[C@@H](c1ccc(Cl)cc1)[C@H]2C(=O)OC (stereo not given in full) | 29 | 21.4 | 20.9 | 23.9 | 22.9 | 49.4 | 38.7 | 25.1 | 32 | > 100 |
| CN(C)/N=C(/CC(O)(C(F)(F)F)C(F)(F)F)c1ccc([N+](=O)[O-])cc1 | > 100 | > 100 | > 100 | > 100 | > 100 | > 100 | > 100 | > 100 | > 100 | > 100 |
| Cc1cc(C)c2c(O)c(S(=O)(=O)c3ccc(Cl)cc3)c(=O)oc2c1 | > 100 | > 100 | > 100 | > 100 | > 100 | > 100 | > 100 | > 100 | > 100 | > 100 |
| O=c1[nH]nc(-c2ccccc2)n1-c1ccncc1 | > 100 | > 100 | > 100 | > 100 | > 100 | > 100 | > 100 | > 100 | > 100 | > 100 |
| CC1(C)C2CCC(CN)(C2)C1N (stereo not given) | > 100 | > 100 | > 100 | > 100 | > 100 | > 100 | > 100 | > 100 | > 100 | > 100 |
| c1nc(N2CC2)c2cnn(C3CCCCO3)c2n1 (stereo not given) | > 100 | > 100 | > 100 | > 100 | > 100 | > 100 | > 100 | > 100 | > 100 | > 100 |
| OC1(c2ccccc2)C2CCN(CC2)C1CN1CCOCC1 (stereo not given) | > 100 | > 100 | > 100 | > 100 | > 100 | > 100 | > 100 | > 100 | > 100 | > 100 |
| Cc1ccc(S(=O)(=O)c2ccsc2NC(=O)C(F)(F)F)cc1 | > 100 | > 100 | > 100 | > 100 | > 100 | > 100 | 77.8 | 24.5 | > 100 | 31 |
| c1ccc(-c2cn3c(nc4ccccc43)c(-c3ccccc3)n2)cc1 | > 100 | > 100 | > 100 | 45.1 | > 100 | > 100 | > 32.9 | > 100 | > 100 | > 100 |
| COc1ccc2c(c1)C(=O)Cc1ccccc1CC2 | > 100 | > 100 | > 100 | > 100 | > 100 | > 100 | > 100 | > 100 | > 100 | > 100 |
| COC1(C)CP(=O)(OC(C)C)CC(C)=C1Cl (stereo not given) | > 100 | 61.3 | 39.2 | 60 | 32.4 | 66.3 | > 100 | 30.2 | 26.5 | 24.4 |
| O=[N+]([O-])c1ccc2c(c1)S(=O)(=O)N1Cc3ccccc3CCN21 | > 100 | > 100 | > 100 | > 100 | > 100 | > 100 | > 100 | > 100 | > 100 | > 100 |
| N#Cc1c(=O)n(-c2ccccc2)c(O)c2c(N)n[nH]c12 | > 100 | > 100 | > 100 | > 100 | > 100 | > 100 | > 100 | > 100 | > 100 | > 100 |
| Nc1cccnc1NCC1(CO)CCCC1 | > 100 | > 100 | > 100 | > 100 | > 100 | > 100 | > 100 | > 100 | > 100 | > 100 |
| CN1CCN(c2ccc3[nH]c(-c4cc(O)c5c(nc(CO)n5C)c4O)nc3n2)CC1 | > 100 | > 100 | 44 | > 100 | > 100 | > 100 | > 100 | 43.3 | > 100 | > 100 |
| CC(=O)c1sc2c(c1OC(=O)c1ccco1)c(=O)n(-c1ccccc1)c(=S)n2-c1ccccc1 | 87.2 | 61.9 | 20.6 | > 100 | 73.8 | > 100 | 78.1 | 37.9 | > 100 | 41.6 |
| CC(=N)OC1CC2CCC1(C)C2(C)C (stereo not given) | > 100 | > 100 | > 100 | > 100 | > 100 | > 100 | > 100 | > 100 | > 100 | > 100 |
| Ic1ccc2c(c1)N(c1ccccc1)c1cc(N=c3ccc4nc5ccc(I)cc5n(-c5ccccc5)c-4c3)ccc1N2 | > 100 | > 100 | > 100 | > 100 | > 100 | > 100 | > 100 | 71.5 | 73.1 | > 100 |
| CCOC(=O)C1(Cc2ccccc2)C=CN(C(=O)c2ccccc2)C=C1 | > 100 | > 100 | > 100 | > 100 | > 100 | > 100 | 64.2 | 37.5 | > 100 | 48.6 |
| COc1ccc2c(c1)-c1nc(=S)n(CCCN(C)C)c3ccc([N+](=O)[O-])c(c13)N2 | 21.7 | 2.81 | 6.08 | 1.36 | 4.31 | 10.3 | 22.8 | 17.6 | 1.95 | 4.31 |
